The record followed here is patent US9447449B2, “Recombinant mycobacteriophages for delivery of nucleic acids of interest into mycobacteria” (Albert Einstein College of Medicine of Yeshiva University, priority 2011, dated 2016).

The test relates to M. tuberculosis mc^26230. Format: cell-based.

Regarding `NNC(=O)c1ccncc1` [isoniazid], the “MFI relative to untreated control” value is on record as “lower than the untreated control”; the “average fluorescence decreased by” value is recorded as 64%; the “effect of 18 hr pre-treatment prior to phage addition on DST signal” value is “increased the difference between treated and non-treated samples”; the “six hour pre-incubation to determine drug sensitivity” value is given as “not sufficient”.
On to `NC[C@H]1O[C@H](O[C@H]2[C@H](O)[C@@H](O[C@H]3O[C@H](CO)[C@@H](O)[C@H](N)[C@H]3O)[C@H](N)C[C@@H]2N)[C@H](O)[C@@H](O)[C@@H]1O` [kanamycin], for which the “fluorescence of the M. tuberculosis cells diminished by” value is on record as “approximately 85%”.
On to `CO[C@H]1/C=C/O[C@@]2(C)Oc3c(C)c(O)c4c(O)c(c(/C=N/N5CCN(C)CC5)c(O)c4c3C2=O)NC(=O)/C(C)=C\C=C\[C@H](C)[C@H](O)[C@@H](C)[C@@H](O)[C@@H](C)[C@H](OC(C)=O)[C@@H]1C` [rifampicin], for which the “fluorescence of the M. tuberculosis cells diminished by” value is “approximately 85%”.
